Patent US10793563B2, “GCN2 inhibitors and uses thereof” (Merck Patent GmbH, priority 2018, dated 2020)
pIC50, pKi: −log10 of the molar value.

Key:
[1] = target: intracellular GCN2 (phosphorylation of the GCN2 substrate eIF2α) (Homo sapiens (Human), UniProt Q9P2K8); experiment: GCN2 Cellular Inhibition Assay (AlphaScreen SureFire P-eIF2α Ser51, borrelidin-treated U2OS cells); assay type: cell-based; conditions: 10 μM borrelidin, 1 h, phosphorylated eIF2α Ser51, read-out: GCN2 Biomarker (IC50)
Method in brief: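 Phospho-eIF2α (Ser51) measured by AlphaScreen SureFire in lysates of U2OS cells stimulated 1 h at 37 °C with 10 μM borrelidin alongside compound, 4-fold dilutions from 40 μM. Inhibition expressed as percent relative to borrelidin-alone controls.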

[2] = target: GCN2 kinase (Homo sapiens (Human), UniProt Q9P2K8); experiment: GCN2 Enzyme Inhibition Assay (Transcreener ADP2 fluorescence polarization); assay type: biochemical; conditions: 280 μM ATP, 200 μM (RS)7 peptide, 4 nM GCN2, 25° C.; for pKi: Ki(app)
Sequence of GCN2 kinase (Q9P2K8 whole entry): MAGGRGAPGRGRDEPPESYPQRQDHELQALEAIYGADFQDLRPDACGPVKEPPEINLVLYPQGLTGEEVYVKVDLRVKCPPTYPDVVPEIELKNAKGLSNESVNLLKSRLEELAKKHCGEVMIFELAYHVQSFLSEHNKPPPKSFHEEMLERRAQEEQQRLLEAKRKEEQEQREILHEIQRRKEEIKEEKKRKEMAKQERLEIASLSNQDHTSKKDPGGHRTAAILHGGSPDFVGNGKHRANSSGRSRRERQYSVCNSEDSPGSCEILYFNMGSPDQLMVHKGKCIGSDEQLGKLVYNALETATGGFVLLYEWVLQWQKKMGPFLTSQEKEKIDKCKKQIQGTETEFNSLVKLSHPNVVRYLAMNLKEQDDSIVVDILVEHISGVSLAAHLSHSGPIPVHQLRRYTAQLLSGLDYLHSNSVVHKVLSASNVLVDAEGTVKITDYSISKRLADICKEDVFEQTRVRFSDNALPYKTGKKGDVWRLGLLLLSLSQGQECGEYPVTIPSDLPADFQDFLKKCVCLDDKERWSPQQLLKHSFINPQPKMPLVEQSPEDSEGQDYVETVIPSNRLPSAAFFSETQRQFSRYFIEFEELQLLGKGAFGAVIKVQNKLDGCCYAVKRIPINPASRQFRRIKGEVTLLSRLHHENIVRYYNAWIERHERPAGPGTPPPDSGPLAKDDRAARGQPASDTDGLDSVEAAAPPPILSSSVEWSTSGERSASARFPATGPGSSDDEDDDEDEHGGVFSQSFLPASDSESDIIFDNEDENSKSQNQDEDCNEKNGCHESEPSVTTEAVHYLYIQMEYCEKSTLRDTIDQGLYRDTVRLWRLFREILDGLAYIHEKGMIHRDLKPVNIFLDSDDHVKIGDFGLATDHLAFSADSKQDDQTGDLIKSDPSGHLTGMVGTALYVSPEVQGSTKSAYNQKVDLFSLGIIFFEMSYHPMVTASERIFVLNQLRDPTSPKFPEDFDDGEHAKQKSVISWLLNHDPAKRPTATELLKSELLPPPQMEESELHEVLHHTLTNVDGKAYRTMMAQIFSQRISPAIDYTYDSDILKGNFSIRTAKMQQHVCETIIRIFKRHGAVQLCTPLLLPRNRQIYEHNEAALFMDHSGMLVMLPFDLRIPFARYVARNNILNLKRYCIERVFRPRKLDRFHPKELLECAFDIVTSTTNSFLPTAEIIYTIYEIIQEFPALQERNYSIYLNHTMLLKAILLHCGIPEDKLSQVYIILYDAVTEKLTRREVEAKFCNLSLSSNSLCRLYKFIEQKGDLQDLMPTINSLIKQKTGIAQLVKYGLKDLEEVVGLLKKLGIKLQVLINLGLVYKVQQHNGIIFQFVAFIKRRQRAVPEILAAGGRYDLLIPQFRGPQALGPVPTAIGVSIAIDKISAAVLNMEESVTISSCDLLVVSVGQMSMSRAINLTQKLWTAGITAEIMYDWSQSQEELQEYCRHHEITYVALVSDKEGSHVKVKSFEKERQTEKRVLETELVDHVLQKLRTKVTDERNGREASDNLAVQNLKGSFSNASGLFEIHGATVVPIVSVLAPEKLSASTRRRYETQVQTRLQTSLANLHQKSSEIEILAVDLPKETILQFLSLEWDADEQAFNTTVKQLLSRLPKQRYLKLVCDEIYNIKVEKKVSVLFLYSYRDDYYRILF
Method in brief: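 At 25 °C, GCN2 kinase (typical final concentration 4 nM) and (RS)7 peptide in Tris-HCl pH 7.5 buffer with MgCl2, NaCl and DTT were preincubated with compound for 10 min, then ATP was added for a 1 h reaction. ADP was read by FP with antibody/Alexa633 tracer. Non-linear tight-binding analysis gave IC50 and apparent Ki.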

Sequence of intracellular GCN2 (phosphorylation of the GCN2 substrate eIF2α) (Q9P2K8 whole entry): as above

Structure (SMILES)	pIC50 [1]	pIC50 [2]	pKi [2]
C[C@@H]1CN(c2ccnc(-c3cnc4ccc(C(F)(F)F)cn34)n2)C[C@H](C)N1C(=O)c1ccn(C2CC2)n1 [I-440, (1-cyclopropyl-1H-pyrazol-3-yl)(cis-2,6-dimethyl-4-(2-(6-(trifluoromethyl)imidazo[1,2-a]pyridin-3-yl)pyrimidin-4-yl)piperazin-1-yl)methanone]	< 5.30	6.00 to 7.00	–
C[C@@H]1C[C@H](N=S(C)(C)=O)CN(c2ccnc(-c3cnc4ccc(C#N)cn34)n2)C1 [I-262, 3-(4-((3S,5R)-3-((dimethyl(oxo)-λ6-sulfaneylidene)amino)-5-methylpiperidin-1-yl)pyrimidin-2-yl)imidazo[1,2-a]pyridine-6-carbonitrile]	< 5.30	7.00 to 8.00	–
CS(=N)(=O)C[C@H]1CCCN(c2ccnc(-c3cnc4ccc(C(F)(F)F)cn34)n2)C1 (some centres unmarked) [I-4, 3-(4-(3-((S-Methylsulfonimidoyl)methyl)piperidin-1-yl)pyrimidin-2-yl)-6-(trifluoromethyl)imidazo[1,2-a]pyridine]	5.30 to 6.30	–	7.00 to 8.00
O=C(C1CC1)N1CCN(c2ccnc(-c3cnc4ccc(C(F)(F)F)cn34)n2)CC1c1cn[nH]c1 (centres unmarked) [I-397, (2-(1H-pyrazol-4-yl)-4-(2-(6-(trifluoromethyl)imidazo[1,2-a]pyridin-3-yl)pyrimidin-4-yl)piperazin-1-yl)(cyclopropyl)methanone]	5.30 to 6.30	7.00 to 8.00	–
O=C(c1cnoc1)N1CCN(c2ccnc(-c3cnc4ccc(C(F)(F)F)cn34)n2)CC1c1cn[nH]c1 (centres unmarked) [I-444, (2-(1H-pyrazol-4-yl)-4-(2-(6-(trifluoromethyl)imidazo[1,2-a]pyridin-3-yl)pyrimidin-4-yl)piperazin-1-yl)(isoxazol-4-yl)methanone]	5.30 to 6.30	7.00 to 8.00	–
CS(=O)(=O)NCC1CCCN(c2nc(-c3cnc4ccc(C(F)(F)F)cn34)ns2)C1 (centres unmarked) [I-112, N-((1-(3-(6-(trifluoromethyl)imidazo[1,2-a]pyridin-3-yl)-1,2,4-thiadiazol-5-yl)piperidin-3-yl)methyl)methanesulfonamide]	5.30 to 6.30	–	> 8.00
Cc1[nH]ncc1[C@@H]1C[C@@H](O)CN(c2ccnc(-c3cnc4ccc(C(F)(F)F)cn34)n2)C1 [I-308, (3R,5S)-5-(5-methyl-1H-pyrazol-4-yl)-1-(2-(6-(trifluoromethyl)imidazo[1,2-a]pyridin-3-yl)pyrimidin-4-yl)piperidin-3-ol]	5.30 to 6.30	7.00 to 8.00	–
O=C1NCC2CN(c3ccnc(-c4cnc5ccc(C(F)(F)F)cn45)n3)CCN12 (centres unmarked) [I-5, 7-(2-(6-(Trifluoromethyl)imidazo[1,2-a]pyridin-3-yl)pyrimidin-4-yl)hexahydroimidazo[1,5-a]pyrazin-3(2H)-one]	5.30 to 6.30	–	7.00 to 8.00
CC(=O)N1[C@H](C)CN(c2ccnc(-c3cnc4ccc(C(F)(F)F)cn34)n2)C[C@@H]1C [I-414, 1-(cis-2,6-dimethyl-4-(2-(6-(trifluoromethyl)imidazo[1,2-a]pyridin-3-yl)pyrimidin-4-yl)piperazin-1-yl)ethan-1-one]	5.30 to 6.30	7.00 to 8.00	–
OC1CC(N2CCN(c3ccnc(-c4cnc5ccc(C(F)(F)F)cn45)n3)CC2c2cn[nH]c2)C1 (centres unmarked) [I-383, 3-(2-(1H-pyrazol-4-yl)-4-(2-(6-(trifluoromethyl)imidazo[1,2-a]pyridin-3-yl)pyrimidin-4-yl)piperazin-1-yl)cyclobutan-1-ol]	5.30 to 6.30	> 8.00	–
NC(=O)C1CN(c2ccnc(-c3cnc4ccc(C(F)(F)F)cn34)n2)CCN1 (centres unmarked) [I-217, 4-(2-(6-(trifluoromethyl)imidazo[1,2-a]pyridin-3-yl)pyrimidin-4-yl)piperazine-2-carboxamide]	5.30 to 6.30	7.00 to 8.00	–
C[C@H]1[C@@H](CNS(C)(=O)=O)N(C2CC2)CCN1c1nccc(-c2cnc3ccc(C(F)(F)F)cn23)n1 [I-541, N-(((2R,3 S)-1-cyclopropyl-3-methyl-4-(4-(6-(trifluoromethyl)imidazo[1,2-a]pyridin-3-yl)pyrimidin-2-yl)piperazin-2-yl)methyl)methanesulfonamide]	5.30 to 6.30	6.00 to 7.00	–
N#C[C@H]1CCCN(c2ccnc(-c3cnc4ccc(C(F)(F)F)cn34)n2)C1 [I-227, (S)-1-(2-(6-(trifluoromethyl)imidazo[1,2-a]pyridin-3-yl)pyrimidin-4-yl)piperidine-3-carbonitrile]	5.30 to 6.30	7.00 to 8.00	–

The remaining lines, values ahead:

pIC50 [1]	pIC50 [2]	pKi [2]	Structure (SMILES)
5.30 to 6.30	7.00 to 8.00	–	OCC1CN(c2ccnc(-c3cnc4ccc(C(F)(F)F)cn34)n2)CCC1O (centres unmarked) [I-241, 3-(hydroxymethyl)-1-(2-(6-(trifluoromethyl)imidazo[1,2-a]pyridin-3-yl)pyrimidin-4-yl)piperidin-4-ol]
5.30 to 6.30	7.00 to 8.00	–	O=C(c1cocn1)N1CCN(c2ccnc(-c3cnc4ccc(C(F)(F)F)cn34)n2)CC1c1cn[nH]c1 (centres unmarked) [I-443, (2-(1H-pyrazol-4-yl)-4-(2-(6-(trifluoromethyl)imidazo[1,2-a]pyridin-3-yl)pyrimidin-4-yl)piperazin-1-yl)(oxazol-4-yl)methanone]
5.30 to 6.30	7.00 to 8.00	–	C[C@@H]1C[C@H](N=S(C)(C)=O)CN(c2ccnc(-c3cnc4cc(Cl)c(Cl)cn34)n2)C1 [I-269, (((3 S,5R)-1-(2-(6,7-dichloroimidazo[1,2-a]pyridin-3-yl)pyrimidin-4-yl)-5-methylpiperidin-3-yl)imino)dimethyl-λ6-sulfanone]
5.30 to 6.30	6.00 to 7.00	–	Cc1oncc1[C@@H]1CN(c2ccnc(-c3cnc4ccc(C(F)(F)F)cn34)n2)C[C@@H](C)O1 [I-343, (2R,6R)-2-methyl-6-(5-methylisoxazol-4-yl)-4-(2-(6-(trifluoromethyl)imidazo[1,2-a]pyridin-3-yl)pyrimidin-4-yl)morpholine]
> 6.30	6.00 to 7.00	–	FC1(F)CCCN(c2ccnc(-c3cnc4ccc(C(F)(F)F)cn34)n2)C1 [I-224, 3-(4-(3,3-difluoropiperidin-1-yl)pyrimidin-2-yl)-6-(trifluoromethyl)imidazo[1,2-a]pyridine]
5.30 to 6.30	7.00 to 8.00	–	Cn1nccc1C(=O)N1CCN(c2ccnc(-c3cnc4ccc(C(F)(F)F)cn34)n2)CC1c1cn[nH]c1 (centres unmarked) [I-419, (2-(1H-pyrazol-4-yl)-4-(2-(6-(trifluoromethyl)imidazo[1,2-a]pyridin-3-yl)pyrimidin-4-yl)piperazin-1-yl)(1-methyl-1H-pyrazol-5-yl)methanone]
5.30 to 6.30	6.00 to 7.00	–	C[C@@H]1CN(c2ccnc(-c3cnc4ccc(C(F)(F)F)cn34)n2)C[C@H](C)N1C(=O)CC1COC1 [I-501, 1-(cis-2,6-dimethyl-4-(2-(6-(trifluoromethyl)imidazo[1,2-a]pyridin-3-yl)pyrimidin-4-yl)piperazin-1-yl)-2-(oxetan-3-yl)ethan-1-one]
5.30 to 6.30	> 8.00	–	C[C@H]1C[C@H](c2cn[nH]c2)CN(c2nccc(-c3cnc4ccc(Cl)cn34)n2)C1 (stereo in doubt) [I-198, 6-chloro-3-(2-((3S,5R)-3-methyl-5-(1H-pyrazol-4-yl)piperidin-1-yl)pyrimidin-4-yl)imidazo[1,2-a]pyridine]
5.30 to 6.30	6.00 to 7.00	–	CC1CN(c2ccnc(-c3cnc4ccc(C(F)(F)F)cn34)n2)CC(C)N1C1CC1 (centres unmarked) [I-392, 3-(4-(4-cyclopropyl-3,5-dimethylpiperazin-1-yl)pyrimidin-2-yl)-6-(trifluoromethyl)imidazo[1,2-a]pyridine]
> 6.30	> 8.00	–	CS(=O)(=O)C1CC(N2CCN(c3ccnc(-c4cnc5ccc(C(F)(F)F)cn45)n3)C[C@H]2c2cn[nH]c2)C1 (stereo partly drawn) [I-490, 3-{4-[(R)-4-(3-Methanesulfonyl-cyclobutyl)-3-(1H-pyrazol-4-yl)-piperazin-1-yl]-pyrimidin-2-yl}-6-trifluoromethyl-imidazo[1,2-a]pyridine]
> 6.30	7.00 to 8.00	–	CS(=O)(=O)NC1CC(C(F)(F)F)CN(c2ccnc(-c3cnc4ccc(C(F)(F)F)cn34)n2)C1 (centres unmarked) [I-478, N-(5-(trifluoromethyl)-1-(2-(6-(trifluoromethyl)imidazo[1,2-a]pyridin-3-yl)pyrimidin-4-yl)piperidin-3-yl)methanesulfonamide]
> 6.30	> 8.00	–	C[C@H]1CN(c2nccc(-c3cnc4cc(F)c(Cl)cn34)n2)C[C@@H](c2cn[nH]c2)O1 [I-270, (2S,6R)-4-(4-(6-chloro-7-fluoroimidazo[1,2-a]pyridin-3-yl)pyrimidin-2-yl)-2-methyl-6-(1H-pyrazol-4-yl)morpholine]
> 6.30	> 8.00	–	C[C@@H]1[C@H](CNS(C)(=O)=O)N(C2CC2)CCN1c1nccc(-c2cnc3ccc(C(F)(F)F)cn23)n1 [I-543, N-{(2S,3R)-1-Cyclopropyl-3-methyl-4-[4-(6-trifluoromethyl-imidazo[1,2-a]pyridin-3-yl)-pyrimidin-2-yl]-piperazin-2-ylmethyl}-methanesulfonamide]
> 6.30	7.00 to 8.00	–	Fc1ccc(CN2CCN(c3ccnc(-c4cnc5ccc(C(F)(F)F)cn45)n3)CC2c2cn[nH]c2)cc1F (centres unmarked) [I-450, 3-(4-(4-(3,4-difluorobenzyl)-3-(1H-pyrazol-4-yl)piperazin-1-yl)pyrimidin-2-yl)-6-(trifluoromethyl)imidazo[1,2-a]pyridine]
> 6.30	–	> 8.00	FC(F)(F)c1ccc2ncc(-c3cccc(N4CCOC(c5cn[nH]c5)C4)n3)n2c1 (centres unmarked) [I-12, 2-(1H-Pyrazol-4-yl)-4-[6-[6-(trifluoromethyl)imidazo[1,2-a]pyridin-3-yl]-2-pyridyl]morpholine]
